Laboratory results published in patent publication US9028845B2, “Chimeric immunomodulatory compounds and methods of using the same-IV” (Dynavax Technologies Corporation, priority 2001, dated 2015).
Strand notation (5' to 3'): a small letter for the sugar, then the base; units joined by * are phosphorothioate-linked, units joined directly phosphodiester-linked; [ ] holds rarer units or linkages, { } end groups; capitals alone tell only the bases. d = 2'-deoxy (DNA)

What was measured:
mouse splenocytes = test: Mouse splenocyte cytokine secretion (IL-6, IL-12, IFN by ELISA); assay type: cell-based, BALB/c mice; set-up: IFN: unit not given beside the values; conditions: 24 h
Procedure: Polynucleotides and chimeric compounds were tested for immunostimulatory activity on mouse splenocytes. Immunostimulation was assessed by measurement of cytokine secretion into the culture media. Cytokine levels in the culture supernatant were determined by enzyme-linked immunosorbent assay (ELISA) tests.
Cells were isolated and prepared using standard techniques. Spleens of 8 to 20 week-old BALB/c mice were harvested and the splenocytes isolated using standard teasing and treatment with ACK lysing buffer from BioWhittaker, Inc. Four spleens were pooled in this experiment. Isolated cells were washed in RPMI 1640 media supplemented with 2% heat-inactivated fetal calf serum (FCS), 50 μM 2-mercaptoethanol, 1% penicillin-streptomycin, and 2 mM L-glutamine and resuspended at approximately […] in 10% FCS/RPMI (RPMI 1640 media with 10% heat-inactivated FCS, 50 μM 2-mercaptoethanol, 1% penicillin-streptomycin, and 2 mM L-glutamine).
Cell cultures were set up in triplicate with approximately 7×10^5 cells/well in a 96-well flat microtiter plate in 100 μl 10% FCS/RPMI with the cells allowed to rest for at lest 1 hour after plating. The indicated test compounds were incubated (at the indicated concentrations) for 24 hours at 37° C. Cell supernatants were harvested and frozen at −80° C. Cytokine production by the cells was determined by ELISAs, as shown in 19.

PBMCs = test: Human PBMC proliferation assay (3H-thymidine incorporation); assay type: cell-based; conditions: Experiment A; for mean cpm: 2 μg/ml
mice = test: Serum cytokines (IL-12 p40, IL-6, TNF-α) after subcutaneous injection in mice; assay type: in vivo; conditions: 20 ug subcutaneous, blood 2 hours later
Outline: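 Blood was taken 2 h after subcutaneous injection. LPS positive-control mice were dosed intraperitoneally and bled at 1.5 h, at the peak of TNF-α. Sera were stored at −80° C and TNF-α, IL-6 and IL-12 were measured by immunoassay kits or antibody pairs in duplicate.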

CD19+ B cells = test: Human B cell proliferation assay (3H-thymidine incorporation); conditions: 2 μg/ml; for cpm1 / cpm2 / cpm3 / mean cpm / mean of both: B cells

Substance: 5′-TGACTGTGAACCTTAGAGATGA-3′ (SEQ ID NO: 3) (dT*dG*dA*dC*dT*dG*dT*dG*dA*dA*dC*dC*dT*dT*dA*dG*dA*dG*dA*dT*dG*dA) [Compound P-7, reference compound]
- IFN (mouse splenocytes; dose 1.0 μg/ml): 30
- IL-6 (mouse splenocytes; dose 1.0 μg/ml): 7
- IL-12 (mouse splenocytes; dose 1.0 μg/ml): 143
- IFN (mouse splenocytes; dose 5.0 μg/ml): 23
- IL-6 (mouse splenocytes; dose 5.0 μg/ml): 9
- IL-12 (mouse splenocytes; dose 5.0 μg/ml): 177
- cpm1 (PBMCs; Donor 146, 2 μg/ml): 7620 cpm
- cpm2 (PBMCs; Donor 146, 2 μg/ml): 8362 cpm
- cpm3 (PBMCs; Donor 146, 2 μg/ml): 9686 cpm
- mean cpm (PBMCs; Donor 146 mean): 8556 cpm
- cpm1 (PBMCs; Donor 147, 2 μg/ml): 9783 cpm
- cpm2 (PBMCs; Donor 147, 2 μg/ml): 9841 cpm
- cpm3 (PBMCs; Donor 147, 2 μg/ml): 10476 cpm
- mean cpm (PBMCs; Donor 147 mean): 10033 cpm
- mean of both (PBMCs; mean of Donors 146 and 147, 2 μg/ml): 9295 cpm
- induction of serum IL-12 p40, IL-6 and TNF-α, in words (mice): inactive
- B cell proliferation, in words (CD19+ B cells; 48 h plus 8 h 3H-thymidine pulse): little to no B cell proliferation
- cpm1 (CD19+ B cells; Donor 146, Experiment A): 4858 cpm
- cpm2 (CD19+ B cells; Donor 146, Experiment A): 5810 cpm
- cpm3 (CD19+ B cells; Donor 146, Experiment A): 7079 cpm
- mean cpm (CD19+ B cells; Donor 146 mean, Experiment A): 5916 cpm
- cpm1 (CD19+ B cells; Donor 147, Experiment A): 4364 cpm
- cpm2 (CD19+ B cells; Donor 147, Experiment A): 4066 cpm
- cpm3 (CD19+ B cells; Donor 147, Experiment A): 2774 cpm
- mean cpm (CD19+ B cells; Donor 147 mean, Experiment A): 3735 cpm
- cpm1 (CD19+ B cells; donor 121, Experiment B): 1623 cpm
- cpm2 (CD19+ B cells; donor 121, Experiment B): 1821 cpm
- cpm3 (CD19+ B cells; donor 121, Experiment B): 2901 cpm
- mean cpm (CD19+ B cells; donor 121 mean, Experiment B): 2115 cpm
- cpm1 (CD19+ B cells; donor 194, Experiment B): 1992 cpm
- cpm2 (CD19+ B cells; donor 194, Experiment B): 1593 cpm
- cpm3 (CD19+ B cells; donor 194, Experiment B): 1686 cpm
- mean cpm (CD19+ B cells; donor 194 mean, Experiment B): 1757 cpm
- mean of both (CD19+ B cells; mean of Donors 146 and 147, Experiment A): 4825 cpm
- mean of both (CD19+ B cells; mean of donors 121 and 194, Experiment B): 1936 cpm
